From patent US4007177A, “Cephalosporin derivatives” (Sankyo Company Limited, priority 1973, dated 1977)
≈ marks a conversion by molar mass, not a printed value. Where two headings read alike, the source gives them in different places.

Assays:
Format in all cases: cell-based
Klebsiella 806 = assay: Minimum inhibitory concentration, Klebsiella 806
Protocol: (§1) Minimum inhibitory concentrations (MIC) were determined for the compounds of this invention.

S.aureus R = assay: Minimum inhibitory concentration, S.aureus R; conditions: Staphylococcus aureus
Protocol: as §1

E. coli NIHJ = assay: Minimum inhibitory concentration, E. coli NIHJ; conditions: Escherichia coli
Protocol: as §1

Sh. flexneri 2a = assay: Minimum inhibitory concentration, Sh. flexneri 2a; conditions: Shigella flexneri
Protocol: as §1

S.aureus 209p = assay: Minimum inhibitory concentration, S.aureus 209p; conditions: Staphylococcus aureus
Protocol: as §1

Salm. ent. Gaertner = assay: Minimum inhibitory concentration, Salm. ent. Gaertner; conditions: read-out: Minimum Inhibitory Concentration
Protocol: as §1

Prot. vulgaris = assay: Minimum inhibitory concentration, Prot. vulgaris; conditions: Proteus vulgaris
Protocol: as §1

Klebsiella 846 = assay: Minimum inhibitory concentration, Klebsiella 846
Protocol: as §1

E. coli 609 (R) = assay: Minimum inhibitory concentration, E. coli 609 (R); conditions: Escherichia coli, read-out: Minimum Inhibitory Concentration
Protocol: as §1

Structure (SMILES)	MIC (Klebsiella 806)	MIC (S.aureus R)	MIC (E. coli NIHJ)	MIC (Sh. flexneri 2a)	MIC (S.aureus 209p)	MIC (Salm. ent. Gaertner; Salm. ent. Gaertner)	MIC (Prot. vulgaris)	MIC (Klebsiella 846)	MIC (E. coli 609 (R); E. coli 609 (R))	MIC (Salm. ent. Gaertner)	MIC (E. coli 609 (R))
COC1(NC(=O)C[n+]2cc([O-])on2)C(=O)N2C(C(=O)O)=C(CSc3nnnn3C)CSC21 (stereo not drawn)	1.5 µg/mL (≈ 3.1 µM)	1.5 µg/mL (≈ 3.1 µM)	1.5 µg/mL (≈ 3.1 µM)	1.5 µg/mL (≈ 3.1 µM)	0.8 µg/mL (≈ 1.65 µM)	0.8 µg/mL (≈ 1.65 µM)	6.2 µg/mL (≈ 12.8 µM)	> 200 µg/mL	1.5 µg/mL (≈ 3.1 µM)		
COC1(NC(=O)COc2ccon2)C(=O)N2C(C(=O)O)=C(CSc3nnnn3C)CSC21 (stereo not drawn)	3.1 µg/mL (≈ 6.41 µM)	0.8 µg/mL (≈ 1.65 µM)	3.1 µg/mL (≈ 6.41 µM)	3.1 µg/mL (≈ 6.41 µM)	0.2 µg/mL (≈ 0.414 µM)	1.5 µg/mL (≈ 3.1 µM)	6.2 µg/mL (≈ 12.8 µM)	> 400 µg/mL	3.1 µg/mL (≈ 6.41 µM)		
COC1(NC(=O)CSc2ccon2)C(=O)N2C(C(=O)O)=C(CSc3nnnn3C)CSC21 (stereo not drawn)	6.2 µg/mL (≈ 12.4 µM)	0.8 µg/mL (≈ 1.6 µM)	3.1 µg/mL (≈ 6.21 µM)	3.1 µg/mL (≈ 6.21 µM)	0.2 µg/mL (≈ 0.4 µM)	0.8 µg/mL (≈ 1.6 µM)	3.1 µg/mL (≈ 6.21 µM)	> 400 µg/mL	3.1 µg/mL (≈ 6.21 µM)		
COC1(NC(=O)CSc2ccon2)C(=O)N2C(C(=O)O)=C(COC(C)=O)CSC21 (stereo not drawn) [3-Acetoxymethyl-7β-(3-isoxazolylthioacetamido)-7α-methoxy-3-cephem-4-carboxylic acid]		0.8 µg/mL (≈ 1.8 µM)		6.2 µg/mL (≈ 14 µM)	0.2 µg/mL (≈ 0.451 µM)			> 400 µg/mL			
CCS(=O)(=O)CC(=O)N[C@]1(OC)C(=O)N2C(C(=O)O)=C(CSc3nnnn3C)CS[C@@H]21 [C2 H 5 SO2, 7β-Ethylsulfonylacetamido-7α-methoxy-3-(1-methyl-1H-tetrazol-5-yl)thiomethyl-3-cephem-4-carboxylic acid]	1.5 µg/mL (≈ 3.05 µM)	1.5 µg/mL (≈ 3.05 µM)	1.5 µg/mL (≈ 3.05 µM)	1.5 µg/mL (≈ 3.05 µM)	1.5 µg/mL (≈ 3.05 µM)	0.8 µg/mL (≈ 1.62 µM)	6.2 µg/mL (≈ 12.6 µM)	> 400 µg/mL	1.5 µg/mL (≈ 3.05 µM)		
COC1(NC(=O)Cc2ccccc2)C(=O)N2C(C(=O)O)=C(COC(N)=O)CSC21 (stereo not drawn) [C6 H5, reference compound]	25 µg/mL (≈ 59.3 µM)	3.1 µg/mL (≈ 7.36 µM)	25 µg/mL (≈ 59.3 µM)	12.5 µg/mL (≈ 29.7 µM)	0.8 µg/mL (≈ 1.9 µM)		25 µg/mL (≈ 59.3 µM)	> 400 µg/mL	25 µg/mL (≈ 59.3 µM)	12.5 µg/mL (≈ 29.7 µM)	
COC1(NC(=O)CS(C)(=O)=O)C(=O)N2C(C(=O)O)=C(CSc3nnnn3C)CSC21 (stereo not drawn) [CH3 SO2, 7α-Methoxy-7β-methylsulfonylacetamido-3-(1-methyl-1H-tetrazol-5-yl)thiomethyl-3-cephem-4-carboxylic acid]	0.8 µg/mL (≈ 1.67 µM)			1.5 µg/mL (≈ 3.13 µM)	0.8 µg/mL (≈ 1.67 µM)	0.4 µg/mL (≈ 0.836 µM)		400 µg/mL (≈ 836 µM)			
CC(=O)OCC1=C(C(=O)O)N2C(=O)[C@@H](NC(=O)Cc3cccs3)[C@H]2SC1 [Cephalothin, reference compound]	6.2 µg/mL (≈ 15.6 µM)		6.2 µg/mL (≈ 15.6 µM)	12.5 µg/mL (≈ 31.5 µM)		6.2 µg/mL (≈ 15.6 µM)	6.2 µg/mL (≈ 15.6 µM)	> 200 µg/mL			25 µg/mL (≈ 63.1 µM)
C#CCSCC(=O)NC1(OC)C(=O)N2C(C(=O)O)=C(CSc3nnnn3C)CSC21 (stereo not drawn) [HCCCH2 S, 3-(1-Methyl-1H-tetrazol-5-yl)thiomethyl-7β-propargylthioacetamido-7α-methoxy-3-cephem-4-carboxylic acid]		0.8 µg/mL (≈ 1.7 µM)		3.1 µg/mL (≈ 6.59 µM)	0.2 µg/mL (≈ 0.425 µM)	0.8 µg/mL (≈ 1.7 µM)		400 µg/mL (≈ 850 µM)			
COC1(NC(=O)CSCCO)C(=O)N2C(C(=O)O)=C(CSc3nnnn3C)CSC21 (stereo not drawn) [HOCH2 CH2 S, 7β-(2-Hydroxyethyl)thioacetamido-7α-methoxy-3-(1-methyl-1H-tetrazol-5-yl)thiomethyl-3-cephem-4-carboxylic acid]	1.5 µg/mL (≈ 3.15 µM)	1.5 µg/mL (≈ 3.15 µM)	1.5 µg/mL (≈ 3.15 µM)	3.1 µg/mL (≈ 6.5 µM)	0.8 µg/mL (≈ 1.68 µM)	1.5 µg/mL (≈ 3.15 µM)	6.2 µg/mL (≈ 13 µM)	400 µg/mL (≈ 839 µM)	1.5 µg/mL (≈ 3.15 µM)		
CO[C@@]1(NC(=O)CSCN=[N+]=[N-])C(=O)N2C(C(=O)O)=C(COC(N)=O)CS[C@@H]21 [N3 CH2 S, OCONH2, 7β-Azidomethylthioacetamido-3-carbamoyloxymethyl-7α-methoxy-3-cephem-4-carboxylic acid]	3.1 µg/mL (≈ 7.17 µM)	1.5 µg/mL (≈ 3.47 µM)	3.1 µg/mL (≈ 7.17 µM)	3.1 µg/mL (≈ 7.17 µM)	0.2 µg/mL (≈ 0.462 µM)	1.5 µg/mL (≈ 3.47 µM)	3.1 µg/mL (≈ 7.17 µM)	> 400 µg/mL	6.2 µg/mL (≈ 14.3 µM)		
COC1(NC(=O)CSCN=[N+]=[N-])C(=O)N2C(C(=O)O)=C(CSc3nnnn3C)CSC21 (stereo not drawn) [N3 CH2 S]	3.1 µg/mL (≈ 6.36 µM)	0.4 µg/mL (≈ 0.82 µM)	3.1 µg/mL (≈ 6.36 µM)	1.5 µg/mL (≈ 3.08 µM)	0.4 µg/mL (≈ 0.82 µM)	0.8 µg/mL (≈ 1.64 µM)	1.5 µg/mL (≈ 3.08 µM)	> 200 µg/mL	3.1 µg/mL (≈ 6.36 µM)		
COC1(NC(=O)CS(=O)(=O)CCC#N)C(=O)N2C(C(=O)O)=C(CSc3nnnn3C)CSC21 (stereo not drawn) [NCCH2 CH2 SO2, 7β-(2-Cyanoethylsulfonyl)acetamido-7α-methoxy-3-(1-methyl-1H-tetrazol-5-yl)thiomethyl-3-cephem-4-carboxylic acid]	1.5 µg/mL (≈ 2.9 µM)	3.1 µg/mL (≈ 5.99 µM)	1.5 µg/mL (≈ 2.9 µM)	3.1 µg/mL (≈ 5.99 µM)	1.5 µg/mL (≈ 2.9 µM)	0.8 µg/mL (≈ 1.55 µM)	6.2 µg/mL (≈ 12 µM)	200 µg/mL (≈ 386 µM)	1.5 µg/mL (≈ 2.9 µM)		
